Measured values as given in patent publication US9274101B2 (BIOLOG, Inc., priority 2001, dated 2016).

Experiments:
Type in all cases: cell-based, human
[1] = test system: HepG2 cells; test: HepG2 cells on flat bottom plastic wells, energy sources at a range of concentrations
Protocol: In this Example, methods for testing adherent cells for their ability to use multiple carbon sources are described. The human hepatocellular carcinoma cell line known as HepG2 (Knowles et al., Science, 209:497-499 [1980]) was chosen for this experiment. However, this application is not intended to be limited to the use of HepG2 cells, hepatocytes, carcinoma cells or even human cells.
HepG2 cells were grown in Falcon tissue culture flasks with vented tops. The culture medium used was Minimal Essential medium (MEM, Invitrogen 11095) with 1 g/L glucose, 2 mM L-glutamine, 2.2 g/L sodium bicarbonate, 10 mg/L phenol red, and supplemented with 0.1 mM Nonessential Amino Acids, 1 mM sodium pyruvate, 50 U/mL penicillin, 50 μg/mL streptomycin, and 10% (v/v) heat inactivated fetal bovine serum (HI FBS, Invitrogen 16140). The cells were seeded at 2×10^4/cm^2 and used 3 days after initiation of culture. During all incubations, the cells were kept in an atmosphere of 5% CO2, 90-100% humidity, and 37° C. Cells were harvested by trypsinization for 3 minutes in 0.25% trypsin-1 mM EDTA and resuspended in an equal volume of culture medium. A viable cell count was obtained by trypan blue exclusion and an appropriate volume of the cell suspension (to have 33% more viable cells than was sufficient for the experiment) was placed in a polypropylene centrifuge tube. Cells were pelleted by centrifugation at 350×g for 10 minutes at room temperature, resuspended in Dulbecco's Phosphate Buffered Saline (D-PBS, Invitrogen 14040) and centrifuged a second time. Cells were then resuspended to two-thirds the final volume needed in Dulbecco' ? s Modified Eagle's Medium (DME, Sigma D5030) containing 10% HI FBS and penicillin-streptomycin but without glucose, L-glutamine, sodium pyruvate, and phenol red. An aliquot was counted by trypan blue exclusion and the cell density was adjusted to 1.28×10^5/mL. Cells were plated in 100 μL/well in wells of standard, 96-well plates (4×10^4 cells/cm^2) and allowed to adhere overnight prior to addition of test chemicals.
For assay, the culture medium was aspirated, the wells were washed once with D-PBS and 170 μL of DME were added to each well, followed by 30 μL of the appropriate dilution of each test energy source. Stocks of 133 mM of each test chemical were prepared in tissue culture grade water, sterile filtered, and dilutions were prepared in a master plate so that, upon dilution into a regular 96-well MICROPLATE a total well volume of 200 μL, the final concentrations would be 0.033 to 20 mM. Negative control wells received 30 μL of tissue culture grade water. For each plate containing energy sources and cells, a second, control plate containing only energy sources was prepared. Plates were incubated at 5% CO2, 90-100% humidity, and 37° C. for 48 to 72 hours prior to addition of the MTS/PMS colorometric reagent (10 μL/well). The color formed in each well 4-24 hours after addition of the calorimetric reagent, was measured with a plate reader at 490 nm with a reference wavelength of 650 nm. OD values from the control plate were subtracted from the OD values obtained with cells prior to normalizing the data to % negative control (cells without added energy source).

[2] = test system: Undifferentiated HL-60 cells; test: Energy use by undifferentiated HL-60 cells
[3] = test system: DMSO-differentiated HL-60 cells; test: Energy use by DMSO-differentiated HL-60 cells
Protocol: In this Example, methods for testing in vitro-differentiated cells for their ability to use multiple energy sources are described. Prior to differentiation, HL-60 cells were cultured as described in Example 27. DMSO-induced differentiation (Odani et al., Res. Commun. Mol. Pathol. Pharmacol. 108:381-391 [2000]; and Yamaguchi et al., Biol. Pharm. Bull. 20:943-947 [1997]) was accomplished by incubation of the cells in the presence of 1.25% DMSO for 3 days.
After washing, HL-60 cells were resuspended in DME-R. An aliquot of the cell suspension was counted by trypan blue exclusion and the cell density was adjusted to 6.67×10^5/mL. Fifty μL of DME-R were added to each well of the appropriate number of half area, 96-well plates, followed by 25 μL of the appropriate dilution of each test energy source. Stocks of 133 mM of each test chemical were prepared in tissue culture grade water, sterile filtered, and dilutions were prepared in a master plate so that, upon dilution into a half-area 96-well microtiter plate to a total well volume of 150 μL, the final concentrations would be 0.033 to 20 mM. Negative control wells received 25 μL of tissue culture grade water. The cells were plated at a volume of 75 μL/well, giving a final cell density of 5×10^4/well. For each plate containing energy sources and cells, a second, control plate containing only energy sources was prepared with the same total volume of liquid (148 μL/well). Plates were incubated at 5% CO2, 90-100% humidity, and 37° C. for 24 hours prior to addition of the MTS/MPMS calorimetric reagent (7.5 μL/well). The color formed in each well 24 hours after addition of the colorimetric reagent, was measured with a plate reader at 490 nm with a reference wavelength of 650 nm. OD values from the control plate were subtracted from the OD values obtained with cells prior to normalizing the data to % negative control (cells without added energy source).

[4] = test system: HL-60 cells; test: Effect of 10 mM citric acid on HL-60 energy utilization; conditions: negative control without energy sources and without citric acid
[5] = energy source 0.03 mM with 10 mM citric acid
[6] = energy source 0.10 mM with 10 mM citric acid
[7] = energy source 0.33 mM with 10 mM citric acid
[8] = energy source 1.00 mM with 10 mM citric acid
[9] = energy source 3.3 mM with 10 mM citric acid
[10] = energy source 10 mM with 10 mM citric acid
[11] = energy source 15 mM with 10 mM citric acid
[12] = energy source 20 mM with 10 mM citric acid

O=C1O[C@H]([C@@H](O)CO)[C@@H](O)[C@@H]1O [L-gal acid g-lactone]
HepG2 Cells Responses After 72 hours in Culture and a 4 hour Color Development Period ([1]; Conc. 0.03 mM): 121.2 % of negative control
HepG2 Cells Responses After 72 hours in Culture and a 4 hour Color Development Period ([1]; Conc. 0.10 mM): 127.4 % of negative control
HepG2 Cells Responses After 72 hours in Culture and a 4 hour Color Development Period ([1]; Conc. 0.33 mM): 196.4 % of negative control
HepG2 Cells Responses After 72 hours in Culture and a 4 hour Color Development Period ([1]; Conc. 1.00 mM): 164.1 % of negative control
HepG2 Cells Responses After 72 hours in Culture and a 4 hour Color Development Period ([1]; Conc. 3.3 mM): 172.8 % of negative control
HepG2 Cells Responses After 72 hours in Culture and a 4 hour Color Development Period ([1]; Conc. 10 mM): 181.5 % of negative control
HepG2 Cells Responses After 72 hours in Culture and a 4 hour Color Development Period ([1]; Conc. 15 mM): 215.1 % of negative control
HepG2 Cells Responses After 72 hours in Culture and a 4 hour Color Development Period ([1]; Conc. 20 mM): 231.2 % of negative control
Energy Use by Undifferentiated HL-60 Cells ([2]; Conc. 0.03 mM): 117.0 % of negative control
Energy Use by Undifferentiated HL-60 Cells ([2]; Conc. 0.10 mM): 125.9 % of negative control
Energy Use by Undifferentiated HL-60 Cells ([2]; Conc. 0.33 mM): 132.9 % of negative control
Energy Use by Undifferentiated HL-60 Cells ([2]; Conc. 1.00 mM): 137.0 % of negative control
Energy Use by Undifferentiated HL-60 Cells ([2]; Conc. 3.3 mM): 160.8 % of negative control
Energy Use by Undifferentiated HL-60 Cells ([2]; Conc. 10 mM): 153.0 % of negative control
Energy Use by Undifferentiated HL-60 Cells ([2]; Conc. 15 mM): 163.4 % of negative control
Energy Use by Undifferentiated HL-60 Cells ([2]; Conc. 20 mM): 126.2 % of negative control
Energy Use by DMSO-Differentiated HL-60 Cells ([3]; Conc. 0.03 mM): 113.9 % of negative control
Energy Use by DMSO-Differentiated HL-60 Cells ([3]; Conc. 0.10 mM): 129.2 % of negative control
Energy Use by DMSO-Differentiated HL-60 Cells ([3]; Conc. 0.33 mM): 137.5 % of negative control
Energy Use by DMSO-Differentiated HL-60 Cells ([3]; Conc. 1.00 mM): 155.4 % of negative control
Energy Use by DMSO-Differentiated HL-60 Cells ([3]; Conc. 3.3 mM): 178.2 % of negative control
Energy Use by DMSO-Differentiated HL-60 Cells ([3]; Conc. 10 mM): 171.1 % of negative control
Energy Use by DMSO-Differentiated HL-60 Cells ([3]; Conc. 15 mM): 131.1 % of negative control
Energy Use by DMSO-Differentiated HL-60 Cells ([3]; Conc. 20 mM): 98.1 % of negative control
Effect of 10 mM Citric Acid on HL-60 Energy Utilization [4, 5]: 16.2 % of negative control
Effect of 10 mM Citric Acid on HL-60 Energy Utilization [4, 6]: 18.2 % of negative control
Effect of 10 mM Citric Acid on HL-60 Energy Utilization [4, 7]: 19.7 % of negative control
Effect of 10 mM Citric Acid on HL-60 Energy Utilization [4, 8]: 38.6 % of negative control
Effect of 10 mM Citric Acid on HL-60 Energy Utilization [4, 9]: 188.9 % of negative control
Effect of 10 mM Citric Acid on HL-60 Energy Utilization [4, 10]: 138.4 % of negative control
Effect of 10 mM Citric Acid on HL-60 Energy Utilization [4, 11]: 122.4 % of negative control
Effect of 10 mM Citric Acid on HL-60 Energy Utilization [4, 12]: 111.5 % of negative control

CC(C)[C@H](N)C(=O)O [L-valine]
activity at 30 µM ([1]; Homo sapiens, HepG2, 72 h, Conc. 0.03 mM, read-out: HepG2 Cells Responses After 72 hours in Culture and a 4 hour Color Development Period): 119%
activity at 100 µM ([1]; Homo sapiens, HepG2, 72 h, Conc. 0.10 mM, read-out: HepG2 Cells Responses After 72 hours in Culture and a 4 hour Color Development Period): 149%
activity at 330 µM ([1]; Homo sapiens, HepG2, 72 h, Conc. 0.33 mM, read-out: HepG2 Cells Responses After 72 hours in Culture and a 4 hour Color Development Period): 170%
activity at 1000 µM ([1]; Homo sapiens, HepG2, 72 h, Conc. 1.00 mM, read-out: HepG2 Cells Responses After 72 hours in Culture and a 4 hour Color Development Period): 125%
activity at 3300 µM ([1]; Homo sapiens, HepG2, 72 h, Conc. 3.3 mM, read-out: HepG2 Cells Responses After 72 hours in Culture and a 4 hour Color Development Period): 176%
activity at 10000 µM ([1]; Homo sapiens, HepG2, 72 h, Conc. 10 mM, read-out: HepG2 Cells Responses After 72 hours in Culture and a 4 hour Color Development Period): 132%
activity at 15000 µM ([1]; Homo sapiens, HepG2, 72 h, Conc. 15 mM, read-out: HepG2 Cells Responses After 72 hours in Culture and a 4 hour Color Development Period): 108%
activity at 20000 µM ([1]; Homo sapiens, HepG2, 72 h, Conc. 20 mM, read-out: HepG2 Cells Responses After 72 hours in Culture and a 4 hour Color Development Period): 87.6%
activity at 30 µM ([2]; Homo sapiens, HL-60, 24 h, Conc. 0.03 mM, read-out: Energy Use by Undifferentiated HL-60 Cells): 89.6%
activity at 100 µM ([2]; Homo sapiens, HL-60, 24 h, Conc. 0.10 mM, read-out: Energy Use by Undifferentiated HL-60 Cells): 93.2%
activity at 330 µM ([2]; Homo sapiens, HL-60, 24 h, Conc. 0.33 mM, read-out: Energy Use by Undifferentiated HL-60 Cells): 83.8%
activity at 1000 µM ([2]; Homo sapiens, HL-60, 24 h, Conc. 1.00 mM, read-out: Energy Use by Undifferentiated HL-60 Cells): 78.6%
activity at 3300 µM ([2]; Homo sapiens, HL-60, 24 h, Conc. 3.3 mM, read-out: Energy Use by Undifferentiated HL-60 Cells): 86.4%
activity at 10000 µM ([2]; Homo sapiens, HL-60, 24 h, Conc. 10 mM, read-out: Energy Use by Undifferentiated HL-60 Cells): 89%
activity at 15000 µM ([2]; Homo sapiens, HL-60, 24 h, Conc. 15 mM, read-out: Energy Use by Undifferentiated HL-60 Cells): 97.7%
activity at 20000 µM ([2]; Homo sapiens, HL-60, 24 h, Conc. 20 mM, read-out: Energy Use by Undifferentiated HL-60 Cells): 104%
activity at 30 µM ([3]; Homo sapiens, HL-60, 24 h, Conc. 0.03 mM, read-out: Energy Use by DMSO-Differentiated HL-60 Cells): 81.1%
activity at 100 µM ([3]; Homo sapiens, HL-60, 24 h, Conc. 0.10 mM, read-out: Energy Use by DMSO-Differentiated HL-60 Cells): 89.4%
activity at 330 µM ([3]; Homo sapiens, HL-60, 24 h, Conc. 0.33 mM, read-out: Energy Use by DMSO-Differentiated HL-60 Cells): 85.2%
activity at 1000 µM ([3]; Homo sapiens, HL-60, 24 h, Conc. 1.00 mM, read-out: Energy Use by DMSO-Differentiated HL-60 Cells): 86.7%
activity at 3300 µM ([3]; Homo sapiens, HL-60, 24 h, Conc. 3.3 mM, read-out: Energy Use by DMSO-Differentiated HL-60 Cells): 81.2%
activity at 10000 µM ([3]; Homo sapiens, HL-60, 24 h, Conc. 10 mM, read-out: Energy Use by DMSO-Differentiated HL-60 Cells): 89.3%
activity at 15000 µM ([3]; Homo sapiens, HL-60, 24 h, Conc. 15 mM, read-out: Energy Use by DMSO-Differentiated HL-60 Cells): 81.4%
activity at 20000 µM ([3]; Homo sapiens, HL-60, 24 h, Conc. 20 mM, read-out: Energy Use by DMSO-Differentiated HL-60 Cells): 88.6%
Effect of 10 mM Citric Acid on HL-60 Energy Utilization [4, 5]: 9.3 % of negative control
Effect of 10 mM Citric Acid on HL-60 Energy Utilization [4, 6]: 13.4 % of negative control
Effect of 10 mM Citric Acid on HL-60 Energy Utilization [4, 7]: 12.4 % of negative control
Effect of 10 mM Citric Acid on HL-60 Energy Utilization [4, 8]: 12.7 % of negative control
Effect of 10 mM Citric Acid on HL-60 Energy Utilization [4, 9]: 20.8 % of negative control
Effect of 10 mM Citric Acid on HL-60 Energy Utilization [4, 10]: 32.2 % of negative control
Effect of 10 mM Citric Acid on HL-60 Energy Utilization [4, 11]: 42.3 % of negative control
Effect of 10 mM Citric Acid on HL-60 Energy Utilization [4, 12]: 64.5 % of negative control
